The values below are quoted from earlier work in publication PMC8952239, “Injectable Biodegradable Silica Depot: Two Months of Sustained Release of the Blood Glucose Lowering Peptide, Pramlintide” (Pharmaceutics, 2022).

Bridge positions count the residues as written; N and C are the ends. Ends that are not written are not given here.

For data set [1] the following is noted: weak acid; no reference given. From the text:
In this communication, we highlight a sustained delivery strategy for in vivo delivery of the synthetic peptide analogue of amylin, pramlintide acetate. As mentioned earlier, amylin is the endogenous hormone co-secreted with insulin by the pancreas for glucose metabolism in vivo. […] Such effects can be moderated either by decreasing the single dosing of preprandial ins ...

Another data set concerns rats. The protocol: In an earlier preclinical study of pramlintide in rats, the peak plasma concentration of pramlintide at 50% maximally effective gastric inhibitory dose was reported to be 15 pM. The lower dose (5 mg/kg) formulation in the present study seems to achieve this concentration level by the end of the study.
In the next data set the test system is lean rats. From the text:
(Figure 6). […] The findings for bodyweight loss mirror very well previously published data in lean rats. Roth et al. show body weight returning to baseline levels 8 days after the start of amylin treatment in an experiment assessing the effect ...

On to `O[Si](O)(O)O` [silicic acid], for which the pKa in data set [1] is 9.84.

On to “pramlintide acetate (KCNTATCATQRLANFLVHSSNNFGPILPPTNVGSNTY-NH2; disulfide 2-7 (inferred); also: acetate salt; UniProt P10997 34-70, looked up, variant A25P S28P S29P) [synthetic analogue of amylin, adjunct to preprandial insulin therapy]”, for which the “peak plasma concentration at 50% maximally effective gastric inhibitory dose” value with rats was 15 pM.

With “amylin: endogenous hormone co-secreted with insulin by the pancreas (KCNTATCATQRLANFLVHSSNNFGAILSSTNVGSNTY; Islet amyloid polypeptide; UniProt P10997 34-70, looked up)”, the “time after start of treatment at which body weight returned to baseline levels” value in the data set on lean rats (continuous subcutaneous amylin infusion over 24 days) was 8 days. In addition, the “period with significant effects on food intake” value with lean rats (lean animals, minipump over 14 days) is recorded as 6 days.
